Measurements as given in patent publication US10329262B2, “Quinazolinone antibiotics” (priority 2013, dated 2019).
Entries after “also recorded” stand apart in the source; their conditions may differ.

Assays:
HepG2 cells = experiment: cells; conditions: Homo sapiens, HepG2, 16 h, read-out: IC50, XTT cell proliferation assay
Description: HepG2 cells (ATCC HB-8065) were maintained in monolayer culture at 37° C. and 5% CO2 in Dulbecco's Modified Eagle's Medium supplemented with 10% fetal bovine serum, non-essential amino acids, 2 mM L-glutamine, and 1% penicillin-streptomycin. […] The cells were washed with Dulbecco's PBS twice, 150 μL of XTT working solution was added to each well, followed by 3-h incubation. Absorbance at 475 nm (test wavelength) and 660 nm (reference wavelength) was read with a microplate reader. Experiments were performed in triplicate and repeated twice. IC50 values were calculated using GraphPad prism 5.

MRSA ATCC 27660 = experiment: Mouse peritonitis model of MRSA infection; assay type: in vivo, mice
Description: We evaluated several compounds in in vivo mouse infection models, as well as in pharmacokinetic (PK) studies in mice (Table 1). The in vivo efficacy was determined using the rapid mouse peritonitis model of infection, in which the end point is death or survival in 48 hours. We initially dosed the compounds intravenously (iv) at a single dose level. If the compound has good in vivo efficacy after iv administration, we then evaluated efficacy at five dose levels. We also investigated in vivo efficacy after oral (po) administration.
Groups (n=6/group) of mice were infected with MRSA (0.5 mL of ATCC 27660 at a final concentration of 5×10^7 CFU/mL in 5% porcine mucin) intraperitoneally (ip). Following infection, mice were given iv doses by tail vein injection of compound 2, vancomycin (5 mg/kg, positive control), or vehicle at 30 min and 4.5 h after infection. The number of surviving mice was monitored for 48 h. The negative control (vehicle) typically results in the death of all mice. Quinazolinone 2 was dissolved in saline, sterile-filtered, and administered at doses of 2.5, 5, 7.5, 10, 20, and 30 mg/kg. The ED50 value was calculated using GraphPad prism 5.

S. aureus NRS128 = experiment: MIC, CLSI broth microdilution, S. aureus NRS128; assay type: cell-based, Staphylococcus aureus; conditions: Table 2.1, S. aureus NRS128
Description: (§1) MICs were evaluated following the CLSI microdilution method in BBL™ Mueller-Hinton II broth (Wikler et al., Clinical Laboratory Standards Institute Document M7-A7, 29 (2009)). Briefly, two-fold serial dilutions of compound were prepared in triplicate in 96-well plates and inoculated with 5×10^5 cfu/mL of the bacterial suspension. Plates were incubated at 37° C. for 16-20 hours.

[1] = system: E. coli S30 extract system; experiment: In vitro translation assay (E. coli S30 extract, β-galactosidase); assay type: biochemical; conditions: up to 64 μg/mL
Source text: (§2) For in vitro translation, the E. coli S30 Extract System for Circular DNA was used to set up the reactions using plasmid pCP19 containing the lacZ gene for β-galactosidase. Reaction mixtures were supplemented with two-fold dilutions of antibiotic 2 and the β-Galactosidase Enzyme Assay System with Reporter Lysis Buffer was used to quantify the amount of β-galactosidase translated by measuring absorbance at 420 nm. For in vitro transcription, a TranscriptAid T7 High Yield Transcription kit was used with a pET24a/dacB DNA construct under the T7 promoter. The purified plasmid was linearized using the restriction endonuclease XhoI and then purified according to the manufacturer's instructions. A series of samples were prepared and supplemented with two-fold dilutions of antibiotic 2. Samples were analyzed by running on a denaturing 1% formaldehyde agarose gel and stained with ethidium bromide to visualize RNA. Intensities of the bands were quantified and compared to the control to determine the amount of transcription occurring in the presence of 2.

in vivo = conditions: mouse, in vivo
Description: We conducted first fast PK studies (n=2 mice per time point, 5 time points) dosing the compounds iv, followed by full PK studies for selected compounds (n=3 mice per time point, 10-12 time points per route of administration, iv and po).
A single dose of compound 2 was administered to mice (n=3 per time point) by tail vein injection or by oral gavage at 10 mg/kg. Blood was collected by cardiac puncture in heparinized syringes at 2, 5, 20, and 40 min and at 1, 2, 3, 4, 8, 18, and 24 h after iv dosing and at 0.5, 1, 2, 3, 4, 6, 9, 24, and 30 h after po dosing. Blood was centrifuged to obtain plasma. A 50-μL aliquot of plasma was mixed with 100 μL of acetonitrile containing internal standard (5 μM final concentration), followed by centrifugation at 20,000 g for 15 min. The supernatant was analyzed by reverse-phase UPLC. PK parameters were calculated as described in the Plasma protein binding and Pharmacokinetics sections below (see also Gooyit et al. J. Med. Chem. 54, 6676-6690 (2011)).
The area under the concentration-time curve up to the last quantifiable sampling time (AUC0-last) was calculated by the trapezoidal rule. AUC0-∞ was calculated as AUC0-last+(Clast/k), where Clast is the concentration at the last quantifiable sampling time and k is the elimination rate constant. The concentration at time=0 (C0) was estimated from the first sampling times by back-extrapolation using log-linear regression analysis. Half-lives (t1/2α and t1/2β) were estimated from the linear portion of the initial or terminal concentration-time data by linear regression, where the slope of the line was the rate constant k and t1/2α=ln 2/k. Volume of distribution (Vd) was calculated as the dose divided by the initial concentration (C0). Clearance (CL) was calculated from the dose divided by AUC0-∞. Oral bioavailability (F) was calculated by dividing the AUCpo by the AUCiv, as equivalent iv and po doses were administered.

T7 transcription = experiment: In vitro transcription assay (TranscriptAid T7 kit); assay type: biochemical
Source text: as §2

S. aureus NRS119 = experiment: MIC, CLSI broth microdilution, S. aureus NRS119; assay type: cell-based, Staphylococcus aureus
Description: as §1

N#Cc1ccc(/C=C/c2nc3ccccc3c(=O)n2-c2cccc(C(=O)O)c2)cc1.[Na] [Compound 2, Sodium (E)-3-(3-carboxyphenyl)-2-(4-cyanostyryl)quinazolin-4(3H)-one]
IC50 (HepG2 cells): 63 ± 1 mg/L
In Vivo Efficacy (survived/total mice) (MRSA ATCC 27660; 10 mg/kg iv at 30 min and 4.5 hr after infection, n = 6, 48 h): 5/6 @ 10 mg/kg
ED50 (MRSA ATCC 27660; Staphylococcus aureus, iv administration, dose giving survival of 50% of the animals, read-out: Median effective dose (ED50)): 10 mg/kg
In vitro AB activity (MIC) (S. aureus NRS128): 4 mg/L
Inhibition of in vitro translation [1]: did not show any inhibition; also recorded: No inhibition
clearance (in vivo; ICR, iv, 10 mg/kg): 0.426 L/h/kg
concentration at 24 h (in vivo; ICR, iv, 10 mg/kg): 0.142 ± 0.053 µg/mL
t1/2elimination (in vivo; ICR, iv, 10 mg/kg): 22 h
half-life (in vivo; ICR, po, 10 mg/kg): 58 h
AUC (in vivo; female, ICR, iv): 23.5 µg·h/mL
clearance (in vivo; female, ICR, iv): 0.426 L/h/kg
Vd (in vivo; female, ICR, iv, 10 mg/kg): 0.0076 L
half-life (in vivo; female, ICR, iv, 10 mg/kg): 22 h
AUC (in vivo; female, ICR, po, 10 mg/kg): 15.5 µg·h/mL
bioavailability (in vivo; female, ICR, po, 10 mg/kg, F (oral bioavailability)): 66%
bioavailability (in vivo; 10 mg/kg, F (absolute oral bioavailability)): 66%
AUC(0-inf) (in vivo; iv, 10 mg/kg): 23.5 µg·h/mL
AUC(0-t) (in vivo; iv, 10 mg/kg): 19.7 µg·h/mL
C0 (in vivo; iv, 10 mg/kg): 33 µg/mL
Clearance as share of hepatic blood flow in mice (in vivo; iv, 10 mg/kg): less than 10%
Distribution t1/2α (in vivo; iv, 10 mg/kg): 0.243 h
Vd (in vivo; iv, 10 mg/kg): 0.303 L/kg
Volume of distribution (in vivo; iv, 10 mg/kg): 0.3 L/kg
clearance (in vivo; iv, 10 mg/kg): 0.424 L/h/kg
concentration at 24 h (in vivo; iv, 10 mg/kg): 0.142 ± 0.053 µg/mL
t1/2distribution (in vivo; iv, 10 mg/kg): 0.242 h
t1/2elimination (in vivo; iv, 10 mg/kg): 22.3 h
Plasma level at 24 hours (in vivo; iv, 10 mg/kg, 24 h): 0.142 ± 0.053 µg/mL
AUC(0-inf) (in vivo; po, 10 mg/kg): 15.5 µg·h/mL
AUC(0-t) (in vivo; po, 10 mg/kg): 6.55 µg·h/mL
Cmax (in vivo; po, 10 mg/kg): 1.29 µg/mL
Time of maximum concentration (in vivo; po, 10 mg/kg): 1 h
half-life (in vivo; po, 10 mg/kg): 58.2 h
t1/2distribution (in vivo; po, 10 mg/kg): 2.06 h
Inhibition of in vitro transcription (T7 transcription): did not show any inhibition
MIC (S. aureus NRS119; Staphylococcus aureus, NRS119): 8 mg/L
In vitro AB activity (MIC) (S. aureus NRS119; Table 2.1, S. aureus NRS119): 8 mg/L
